Test system: Collagen-induced arthritis (CIA)
Test: Rat collagen induced arthritis, combination dosing with Methotrexate
Assay type: in vivo
Protocol: Immunization and Challenge: Female Lewis rats were immunized on day 0 and challenged on day 7 with cII from bovine nasal mixed with Freund's incomplete adjuvant at a final collagen concentration of 1.0 mg/ml. The animals were injected at the base of the tail with 400 μg of cII. Combination Dosing Regimen: Rats were dosed with the compound of Formula I (3.0 and 10 mg/kg, p.o., bi.d.) or Methotrexate (MTX, 0.1 and 0.2 mg/kg, p.o., q.d.) as monotherapy or in combinations consisting of each dose of the compound of Formula I with each dose of MTX starting on day 6 and continuing through day 21. Joint Pathology Ankle joint swelling was measured to the nearest 0.01 mm by using electronic digital calipers. Measurements were recorded 7 times throughout the study starting on day 6 and ending on day 21. Body weights were recorded on the same days. On day 21, hind paws were removed at the hairline just above the ankle and fixed in 10% neutral buffered formalin. MicroCT analysis: Ankle joints were examined using a cone-beam μCT scanner. A scout view scan was obtained first for selection of the examination volume of the specimens, followed by positioning, measurement and computational reconstruction. In ankle joints, the ratio of bone surface to bone volume, describing the complexity of bone surface in a certain volume, was analyzed. Statistical Analysis For joint swelling/inflammation, data were analyzed using Everstat v.5 software and a 2-way repeated measure ANOVA with Dunnett's post test. MicroCT data were analyzed by Everstat using a 1-way ANOVA and Newman-Keuls multiple comparison test.

For `CN(Cc1cnc2nc(N)nc(N)c2n1)c1ccc(C(=O)N[C@@H](CCC(=O)O)C(=O)O)cc1` [MTX, Methotrexate, reference compound], the “bone erosion, MicroCT” value (MTX 0.1 mg/kg monotherapy) was “effect was not seen” and the “bone erosion, MicroCT” value (MTX 0.2 mg/kg po qd monotherapy) was “significant decrease in bone erosion”.
